Experimental findings from US20020165221A1, “Mediators of hedgehog signaling pathways, compositions and uses related thereto” (priority 2000, published 2002) are described below.

One data set relates to Hedgehog pathway. The data set is described as follows: Gli-Luc assay (Hedgehog-responsive Luciferase reporter), 10T1/2(s12) cells with OCT-SHH. Type of data set: cell-based. To be noted: OCT-SHH 0.3 μg/ml. How it is done:
Compounds to be tested are dissolved in DMSO to a concentration of 10 MM, and stored at −20° C. To activate the Hedgehog pathway in the assay cells, an octylated (lipid-modified) form of the N-terminal fragment of the Sonic Hedgehog protein (OCT-SHH) is used. This N-terminal SHH fragment is produced bacterially.
Compounds may be tested in the “Gli-Luc” assay below, using the cell line 10T(s12), wherein the cells contain a Hedgehog-responsive reporter construct utilizing Luciferase as the reporter gene. In this way, Hedgehog pathway signaling activity can be measured via the Gli-Luc response.
10t1/2(s12) cells are plated in a 96-well micro-titer plate (MTP) at 20,000 cells/well in full medium [DMEM with 10% FBS]. Then plates are placed in the incubator for incubation overnight (O/N), at 37° C. and 5% CO2. After 24 h, the medium is replaced with Luciferase-assay medium (DMEM with 0.5% FBS). Compounds are thawed and diluted in assay medium at 3:1000 (about 300-fold) resulting in a starting concentration of about 30 μM.
Subsequently, 150 μl of each 30 μM sample is added to the first wells (in triplicate). The MTP samples are then diluted at 3-fold dilutions to a total of seven wells, ultimately resulting in a regiment of seven dilutions in triplicate, for each compound. Next, the protein ligand OCT-SHH is diluted in Luciferase-assay medium and added to each well at a final concentration of 0.3 μg/ml. Plates are then returned to the incubator for further incubation O/N, at 37° C. and 5% CO2. After about 24 h, plates are removed from the incubator and the medium is aspirated/discarded. Wells are washed once with assay buffer [PBS +1 mM Mg^2+and 1 mM Ca^2+]. Then 50 μl of assay buffer is added to each well. The Luciferase assay reagent is prepared as described by the vendor (LucLite kit from Packard), and 50 μl is added to each well. Plates are incubated at room temperature (RT) for about 30 minutes after which the signals are read, again at RT, on a Topcount (Packard).
A general note: Reporter assays use an easily measured gene product as a stand-in for the process of interest.

The test system of data set [1] is Ptc-null cells (gli-1 mRNA, Patched pathway). Briefly: Ptc-null assay: gli-1 mRNA by RT-PCR and quantitative real-time PCR. The note with it: 3 days, 1 μM D. Type of data set: cell-based, mouse. The protocol: Ptc-null cells were cultured for 3 days in the presence of vehicle; jervine, a known Patched pathway antagonist (i) used here as a positive control; or 1 μM of compound D. Total ribonucleic acid (RNA) was isolated from the cells and used for reverse transcriptase-polymerase chain reaction (RT-PCR). […] The gli-1 and actin mRNA samples were then loaded on 1.5% agarose gel and were detected by staining with ethidium bromide. The same samples were analyzed by the quantitative real-time polymerase chain reaction method to quantify the levels of gli-1 MRNA.
A general note: Quantitative PCR measures a nucleic acid by following its amplification.

Data set [2] has as its system Patched pathway (ptc-lacZ reporter, Shh-induced BCC-like structures). Briefly: Embryonic mouse skin punch assay: prolonged exposure to D. Type of data set: cell-based. To be noted: Shh-treated skin punches, 6 days. An excerpt:
A novel cell culture assay was established to determine the effects of D on activation of the Patched pathway in skin. In this system, activation of the Patched pathway results in increased expression of the ptc gene.
To monitor the activity of the Patched pathway in embryonic skin, we cultured pieces of skin from transgenic Patched pathway reporter mice. These mice were genetically engineered to harbor a foreign gene (lacZ). The lacZ gene encodes a bacterial beta-galactosidase. The gene was inserted in the ptc locus but allowed for normal ptc function. Ptc activation in response to Shh-induced Patched pathway activation can then be monitored by the production of the lacZ gene product, beta-galactosidase, which is detectable by the enzymatic conversion of the substrate X-gal into a blue-colored reaction product.
Day 17.5 embryonic skin was explanted as 2 mm circular punches from these transgenic reporter mice and cultured for 5 to 7 days in the presence of Shh protein (FIG. 34). […] To test the effect of D, skin punches were cultured for 6 days in the presence of both Shh protein and D (FIG. 35).

The subject of data set [3] is Patched pathway (ptc-lacZ reporter). The data set is described as follows: Embryonic mouse skin punch assay: short-term pretreatment with D. Type of data set: cell-based. To be noted: pretreated with D at 10, 20 and 50 μM for 5 hours, then Shh 6 days. The protocol:
Transgenic mouse-derived skin punches were treated with vehicle or D for 5 hours in the absence of Shh. After the pretreatment, the vehicle or D was removed. The skin punches were washed twice and then cultured in the presence of Shh for 6 days. At the end of the experiment, the skin punches were fixed and stained with X-gal to determine Patched pathway activity.

In data set [4] the test system is Shh-induced BCC-like structures. Briefly: Embryonic mouse skin punch assay: long-term treatment of pre-existing BCC-like structures. It is filed as cell-based. The protocol: Day 17.5 embryonic skin punches from transgenic Patched pathway reporter mice were cultured in the presence of Shh protein for 7 days to allow for the development of BCC-like structures. The Shh protein was removed at the end of the 7 days. The cultures were then exposed to Shh protein plus either vehicle or D for 3 days. The cultures were analyzed histologically after 10 days to assess the formation of BCC-like structures that are indicative of activation of the Patched pathway.
One possible mechanism for D-induced regression of BCC-like structures may be apoptosis of the activated cells. To investigate this possibility, parallel explants were exposed to 5 μM D for 2 days and were then stained by the terminal deoxynucleotidyltransferase mediated d-UTP nick end-labeling (TUNEL) method, which is used to detect apoptotic nuclei.

The test system of data set [5] is Patched pathway (X-gal, gli-1 mRNA, BCC-like structures). Briefly: Embryonic mouse skin punch assay: short-term treatment of pre-existing BCC-like structures. It is filed as cell-based. How it is done:
Day 17.5 embryonic skin punches from transgenic Patched pathway reporter mice were cultured in the presence of Shh protein for 7 days. The Shh protein was removed at the end of the 7 days. The skin punches were then exposed to vehicle or 1 or 5 μM D for 5 hours on days 7 and 9. After each exposure to vehicle or D, the vehicle or D was washed off and the skin punches were cultured again in the presence of Shh protein. Cultures were analyzed by X-gal staining after 10 days in vitro to assess the activity of the Patched pathway.

Data set [6] has as its system Patched pathway / ultraviolet radiation-induced BCC tumors. Briefly: Adult BCC mouse skin punch assay (UV-irradiated Ptc heterozygous transgenic mice). Type of data set: cell-based. The protocol: Ptc heterozygous transgenic mice were irradiated 3 times weekly for 6 months, during which time many small, and often microscopic, BCC tumors developed. Four-mm diameter skin punch explants, presumably containing BCC structures, were cultured for 6 days in the presence of vehicle, the positive control […]), or 5 μM D. At the end of the experiment, the explants were analyzed by X-gal staining to detect the level of Patched pathway activity, by histology to determine the effect of treatment on the morphology of ultraviolet radiation-induced BCCs, and by quantifying the level of gli-1 mRNA expression to characterize the extent of pathway inhibition.

Data set [7] deals with GLI-1 expression in human BCC. The data set is described as follows: Human BCC explant culture, quantitative in situ hybridization. It is filed as cell-based. To be noted: 10 μM D, 3 days, vs vehicle. How it is done: Specimens obtained from surgical procedures (such as Mohs surgery or curettage) were cultured on fresh, living, day 17 embryonic mouse dermis from which all epidermal cells have been removed by digestion using dispase. Since dispase treatment digests basement membrane components, Matrigel, a commercially available basement membrane preparation, was applied between the dermis and BCC. Cultures were assembled on top of a plastic grid and incubated for 3 days (with or without D at a concentration of 10 μM) in a medium suitable for the long-term culture of human skin. After culture, the samples were processed for routine histology and subjected to quantitative in situ hybridization. Briefly, 7μm sections of paraformaldehyde-fixed, paraffin-embedded tissue containing large basal cell islands were cleared, re-hydrated, digested with proteinase K, acetylated and hybridized with [^33P]- labeled RNA probes overnight. After high stringency post-hybridization washes, slides were exposed to a PhosphorImager screen in the dark at room temperature for 4-7 days. After developing, the [^33P]-signal was scanned using a Storm Scanner (Molecular Dynamics). Individual basal cell islands were selected and the signal quantified and expressed in average counts/pixel using ImageQuant 1.0 software.

[8] abbreviates: short-term treatment, 5 hours on days 7 and 9.

Where only a bound is given, the exact number is not on record here.

Usually IC50 stands for the point on the concentration scale where inhibition reaches its midpoint. A higher IC50 goes with weaker potency in that assay. Take `COc1cccc(CN(C(=O)CC(C)(C)C)C2CC(C(=O)N3CCNCC3)N(Cc3ccc4c(c3)OCO4)C2)c1` (centres unmarked) [Compound D]: the half-inhibitory concentration (IC50) in the data set with Hedgehog pathway is < 1000 nM. Also, the “gli-1 mRNA levels (quantitative real-time PCR)” value in data set [1] was “downregulated”. Further, in data set [1] (vs vehicle), the “expression of gli-1 mRNA (RT-PCR, agarose gel)” value is listed as “significantly decreased”. Also, the X-gal staining result in data set [2] (0.2 μM D, vs Shh alone) is “decreased”. The “Patched pathway activity (lacZ reporter enzyme activity)” value in data set [2] (0.01 to 1 μM D) is recorded as “dose-dependent decrease”. In data set [2] (histology), the “formation of BCC-like structures” value is given as “completely blocked” and the “integrity of normal skin cells” value is listed as “without affecting the integrity of normal skin cells”. Besides, the “inhibition of Shh protein-induced upregulation of the Patched pathway (X-gal staining)” value in data set [3] is “complete inhibition”. For the same compound, in data set [4] (5 μM D, 2 days, vs vehicle), the “number of apoptotic nuclei within BCC-like structures (TUNEL)” value is “significantly higher”. For the same compound, the “general cytotoxic effects on skin cells (histology)” value in data set [4] (D 1 or 5 μM, 3 days) is reported as “did not appear to have general cytotoxic effects”. Moreover, the “size and number of Shh-induced BCC-like structures” value in data set [4] (pre-existing structures, D 1 or 5 μM, 3 days, vs vehicle) is recorded as “significantly reduced”. Further, the “regression of existing Shh-induced BCC-like structures” value in data set [5] (1 and 5 μM D for 5 hours on days 7 and 9) was “caused the regression”. The “amount of X-gal staining” value in data set [5] (1 or 5 μM D for 5 hours on days 7 and 9) is reported as “reduced”. Further, in data set [5] (setting [8]), the “GAPDH mRNA levels (general cytotoxicity)” value was “relatively constant” and the “gli-1 transcription (gli-1 mRNA levels)” value is listed as “completely downregulated”. The “number and size of established BCC structures (X-gal staining)” value in data set [6] (5 μM D, 6 days, vs vehicle) is recorded as “decreased”. Further, the “level of gli-1 mRNA” value in data set [6] (D 1 and 5 μM, vs vehicle) is listed as “significantly inhibited”. Moreover, the “regression of ultraviolet radiation-induced BCC tumors (histology)” value in data set [6] (D, 6 days, vs vehicle) is listed as “induced the regression”. Further, in data set [6] (treated vs vehicle), the “levels of housekeeping GAPDH (non-specific cytotoxicity)” value was “no significant difference”. The “level of GLI-1 expression (quantitative in situ hybridization)” value in data set [7] is “greatly reduced”.
